# Patent US20120178738A1, “DIBENZO [B,F] [1,4]OXAZAPINE COMPOUNDS” (ARYX THERAPEUTICS, INC., priority 2007, published 2012)
# Read-outs that look alike come from different tables or passages of the source.
# Assays:
# 5-HT2A receptor = molecular target: T1, 5-HT2A receptor (Rattus norvegicus, UniProt P14842); assay: cell-based
# T1 construct: Eight strips of tissue (0.5 cm long) were cut. and were mounted in 10 ml organ baths; tissue Charles River Laboratories; host or cells: rat aorta strips, endothelium removed
# Protocol: The rat aorta (approximately 7 cm) was isolated and removed from the animal (male Sprague Dawley rat, Charles River Laboratories, Hollister, Calif.). The endothelium was removed mechanically. Eight strips of tissue (0.5 cm long) were cut. and were mounted in 10 ml organ baths kept at 37° C. with Krebs solution (composition in mM: NaCl (118.2), KCl (4.6), CaCl2 (2.5), MgSO4 (1.2), KH2PO4 (1.2), NaHCO3 (24.8) and dextrose (10.0)) that was constantly aerated with carbogen gas (95% O2/5% CO2) to obtain a pH of 7.4. The tissues were subjected to a resting tension of 2 g (3 times, 15 minutes apart, equilibrated in Krebs solution). The tissues were then washed 15 minutes later. Ten minutes later, the tissues were then exposed to 0.1 μM phenylephrine. At the maximal effect, 1 μM acetylcholine was added to confirm the absence of endothelium and then washed twice, 2 minutes apart.
# Contractions were recorded as changes in tension from baseline and expressed as a percentage of the maximum response of the agonist (5-HT) concentration-effect curve. Agonist concentration-response curves were fitted using a nonlinear iterative fitting program (GraphPad Prism) using the relationship of Parker and Waud (Parker, R. B. and Waud, D. R. (1971). Pharmacological estimation of drug-receptor dissociation constants. Statistical evaluation. I. Agonists. J. Pharmacol. Exp. Ther., 177, 1-12). Agonist potency was expressed as EC50 (molar concentration of agonist producing 50% of the maximum response). Concentration-ratios (CRs) were determined from EC50 values in the presence and absence of antagonist and antagonist affinity estimates (pKB and pA2 values) were determined. All data are expressed as mean±s.e. mean.
# human M3 receptors = molecular target: T2, human M3 receptors (Homo sapiens, UniProt P20309); assay: hM3 receptor radioligand binding ([3H]NMS)
# T2 construct: expressed in transfected cells; host or cells: Chinese hamster ovary cells (membranes)
# Protocol: (§1) Consistent with standard competition radioligand binding assays, the methodology was based on displacement of radioligand from tissues (or cell lines) bearing the receptor of interest (Cheng, Y. and Prusoff, W. H. (1973). Biochem. Pharmacol. 22, 3099-3108). The measurements were based on the binding of a single concentration of radiolabeled ligand in the presence of various concentrations of unlabeled ligand.
# (§2) Tissues (or cellular plasma membrane fractions) were incubated in the presence of radioligand at equilibrium and in the presence of a range of concentrations of the test compounds (which were non-radiolabeled), and the displaced radioligand was separated from the membranes by filtration. Nonspecific binding was assessed by measuring displacement of the radioligand in the presence of a compound known to block binding of the radioligand to the receptor. Finally, the concentration-response relationship for radioligand displacement (corrected for non-specific binding) was used to assess binding of the test compound to the receptor.
# [1] = molecular target: T3, human D2L dopamine receptors (Homo sapiens, UniProt P14416); assay: hD2L receptor radioligand binding ([3H]spiperone)
# T3 construct: expressed in transfected cells; host or cells: insect Sf9 cells (membranes)
# Protocol: as §1, §2
# human 5HT2C receptors = molecular target: T4, human 5HT2C receptors (Homo sapiens, UniProt P28335); assay: h5-HT2C receptor radioligand binding ([3H]Mesulergine); conditions: pKi reported on a scale of 1 through 5
# T4 construct: expressed in transfected cells; host or cells: human embryo kidney cells (membranes)
# T4 sequence (P28335 33-458): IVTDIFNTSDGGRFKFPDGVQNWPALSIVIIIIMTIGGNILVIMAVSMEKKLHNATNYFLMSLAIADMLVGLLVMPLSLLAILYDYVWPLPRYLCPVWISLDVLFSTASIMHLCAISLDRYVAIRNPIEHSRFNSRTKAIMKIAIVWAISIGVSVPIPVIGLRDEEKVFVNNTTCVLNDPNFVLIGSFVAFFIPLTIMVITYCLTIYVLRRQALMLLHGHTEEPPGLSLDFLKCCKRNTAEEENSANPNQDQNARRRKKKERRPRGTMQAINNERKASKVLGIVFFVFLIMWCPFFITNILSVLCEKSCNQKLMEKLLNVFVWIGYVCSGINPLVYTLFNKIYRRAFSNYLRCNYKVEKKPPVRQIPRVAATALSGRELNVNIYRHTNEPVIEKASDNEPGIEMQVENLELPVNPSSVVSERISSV
# Protocol: The measurements were based on the binding of a single concentration of radiolabeled ligand in the presence of various concentrations of unlabeled ligand.
# as §2
# human H1 receptors = molecular target: T5, human H1 receptors (Homo sapiens, UniProt P35367); assay: hH1 receptor radioligand binding ([3H]Pyrilamine); conditions: pKi reported on a scale of 1 through 5
# T5 construct: expressed in transfected cells; host or cells: Chinese hamster ovary cells (membranes)
# Protocol: as §1, §2
# [2] = molecular target: T6, human D2s dopamine receptors (Homo sapiens, UniProt P14416); assay: hD2S receptor radioligand binding ([3H]spiperone); conditions: pKi reported on a scale of 1 through 5
# T6 construct: expressed in transfected cells; host or cells: Chinese hamster ovary cells (membranes)
# Protocol: as §1, §2
# human 5HT7 receptors = molecular target: T7, human 5HT7 receptors (Homo sapiens, UniProt P34969); assay: h5-HT7 receptor radioligand binding ([3H]5-CT)
# T7 construct: expressed in transfected cells; host or cells: Chinese hamster ovary cells (membranes)
# Protocol: as §1, §2
# human M1 receptors = molecular target: T8, human M1 receptors (Homo sapiens, UniProt P11229); assay: hM1 receptor radioligand binding ([3H]NMS); conditions: pKi reported on a scale of 1 through 5
# T8 construct: expressed in transfected cells; host or cells: Chinese hamster ovary cells (membranes)
# T8 sequence (P11229 1-460): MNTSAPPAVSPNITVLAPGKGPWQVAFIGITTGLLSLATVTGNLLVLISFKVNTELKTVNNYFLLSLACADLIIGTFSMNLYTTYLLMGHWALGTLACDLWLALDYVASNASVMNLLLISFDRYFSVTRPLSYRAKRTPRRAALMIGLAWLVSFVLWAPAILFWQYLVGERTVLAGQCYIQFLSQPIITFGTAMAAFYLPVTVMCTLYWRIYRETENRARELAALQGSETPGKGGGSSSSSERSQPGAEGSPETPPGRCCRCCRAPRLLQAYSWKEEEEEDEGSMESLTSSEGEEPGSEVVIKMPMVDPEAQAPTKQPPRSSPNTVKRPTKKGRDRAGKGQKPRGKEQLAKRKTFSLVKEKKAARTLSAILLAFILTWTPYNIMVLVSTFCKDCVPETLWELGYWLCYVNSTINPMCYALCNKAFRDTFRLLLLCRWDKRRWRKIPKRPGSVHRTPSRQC
# Protocol: as §1, §2
# human 5HT1A receptors = molecular target: T9, human 5HT1A receptors (Homo sapiens, UniProt P08908); assay: h5-HT1A receptor radioligand binding ([3H]8OH-DPAT); conditions: pKi reported on a scale of 1 through 5
# T9 construct: expressed in transfected cells; host or cells: Chinese hamster ovary cells (membranes)
# T9 sequence (P08908 1-422): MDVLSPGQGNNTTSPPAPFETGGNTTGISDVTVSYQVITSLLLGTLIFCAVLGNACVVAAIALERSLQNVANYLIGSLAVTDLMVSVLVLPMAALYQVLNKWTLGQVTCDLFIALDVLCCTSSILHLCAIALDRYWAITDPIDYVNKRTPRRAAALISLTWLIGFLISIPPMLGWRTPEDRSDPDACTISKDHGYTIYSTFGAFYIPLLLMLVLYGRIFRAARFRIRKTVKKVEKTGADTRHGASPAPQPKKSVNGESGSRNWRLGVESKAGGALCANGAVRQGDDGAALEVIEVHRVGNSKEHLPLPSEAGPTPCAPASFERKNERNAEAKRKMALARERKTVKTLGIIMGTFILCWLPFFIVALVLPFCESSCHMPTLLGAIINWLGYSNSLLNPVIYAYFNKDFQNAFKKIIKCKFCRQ
# Protocol: as §1, §2
# [3] = read-out: 5HT2A (pKb) (converted)
# [4] = pKi reported on a scale of 1 through 5, read-out: M3 (pKi) (converted)
# [5] = pKi reported on a scale of 1 through 5, read-out: D2L (pKi) (converted)
# [6] = pKi reported on a scale of 1 through 5, read-out: 5HT7 (pKi) (converted)
# T5 sequence (P35367 whole entry): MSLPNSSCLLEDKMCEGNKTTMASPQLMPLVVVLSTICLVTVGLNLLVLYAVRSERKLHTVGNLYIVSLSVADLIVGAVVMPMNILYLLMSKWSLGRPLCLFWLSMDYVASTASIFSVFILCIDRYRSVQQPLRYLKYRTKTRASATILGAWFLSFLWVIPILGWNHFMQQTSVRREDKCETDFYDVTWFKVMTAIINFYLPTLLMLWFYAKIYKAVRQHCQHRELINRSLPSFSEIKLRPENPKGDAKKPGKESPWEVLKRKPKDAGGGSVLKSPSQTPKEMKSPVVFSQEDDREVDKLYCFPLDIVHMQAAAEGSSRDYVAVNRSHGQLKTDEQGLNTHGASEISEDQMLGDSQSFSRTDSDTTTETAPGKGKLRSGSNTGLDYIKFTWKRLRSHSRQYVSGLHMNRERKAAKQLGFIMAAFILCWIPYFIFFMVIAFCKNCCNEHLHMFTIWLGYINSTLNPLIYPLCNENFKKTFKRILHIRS
# T6 sequence (P14416 1-414 isoform P14416-2): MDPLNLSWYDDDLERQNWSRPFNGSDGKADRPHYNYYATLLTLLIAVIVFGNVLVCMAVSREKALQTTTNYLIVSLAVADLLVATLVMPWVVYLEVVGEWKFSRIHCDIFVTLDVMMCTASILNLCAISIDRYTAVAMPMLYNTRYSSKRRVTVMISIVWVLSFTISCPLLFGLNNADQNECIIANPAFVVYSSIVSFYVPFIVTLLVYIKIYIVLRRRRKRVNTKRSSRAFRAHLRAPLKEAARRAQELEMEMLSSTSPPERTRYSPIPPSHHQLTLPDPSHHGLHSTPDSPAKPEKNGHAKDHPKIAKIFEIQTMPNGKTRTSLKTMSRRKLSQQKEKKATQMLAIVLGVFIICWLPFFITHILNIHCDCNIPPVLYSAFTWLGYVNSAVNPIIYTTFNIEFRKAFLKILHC
# T1 sequence (P14842 whole entry): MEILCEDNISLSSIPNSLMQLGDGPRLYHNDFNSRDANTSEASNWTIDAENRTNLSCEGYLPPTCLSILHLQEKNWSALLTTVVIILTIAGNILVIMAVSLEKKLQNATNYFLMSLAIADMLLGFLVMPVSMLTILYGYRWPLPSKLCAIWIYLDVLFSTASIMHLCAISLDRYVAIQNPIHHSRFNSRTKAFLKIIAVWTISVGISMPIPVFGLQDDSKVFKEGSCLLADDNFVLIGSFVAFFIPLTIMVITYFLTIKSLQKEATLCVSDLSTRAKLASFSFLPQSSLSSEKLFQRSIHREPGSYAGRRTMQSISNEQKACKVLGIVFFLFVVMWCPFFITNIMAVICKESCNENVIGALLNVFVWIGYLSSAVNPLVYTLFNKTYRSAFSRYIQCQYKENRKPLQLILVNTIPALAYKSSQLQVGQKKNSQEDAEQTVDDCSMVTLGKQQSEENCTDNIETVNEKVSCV
# T7 sequence (P34969 whole entry): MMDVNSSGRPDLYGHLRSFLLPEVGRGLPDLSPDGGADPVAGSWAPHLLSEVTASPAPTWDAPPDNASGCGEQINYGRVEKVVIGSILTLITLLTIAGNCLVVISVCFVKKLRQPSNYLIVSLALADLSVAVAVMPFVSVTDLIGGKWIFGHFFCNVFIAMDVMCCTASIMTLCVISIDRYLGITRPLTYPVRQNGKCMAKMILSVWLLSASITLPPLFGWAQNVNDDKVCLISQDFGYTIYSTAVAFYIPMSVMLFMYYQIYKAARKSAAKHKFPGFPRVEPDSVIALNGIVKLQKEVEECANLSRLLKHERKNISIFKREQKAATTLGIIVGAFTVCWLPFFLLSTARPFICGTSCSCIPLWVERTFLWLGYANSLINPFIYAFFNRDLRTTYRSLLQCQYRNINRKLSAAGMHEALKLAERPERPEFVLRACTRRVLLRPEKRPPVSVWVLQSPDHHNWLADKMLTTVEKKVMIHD
# T3 sequence (P14416 whole entry): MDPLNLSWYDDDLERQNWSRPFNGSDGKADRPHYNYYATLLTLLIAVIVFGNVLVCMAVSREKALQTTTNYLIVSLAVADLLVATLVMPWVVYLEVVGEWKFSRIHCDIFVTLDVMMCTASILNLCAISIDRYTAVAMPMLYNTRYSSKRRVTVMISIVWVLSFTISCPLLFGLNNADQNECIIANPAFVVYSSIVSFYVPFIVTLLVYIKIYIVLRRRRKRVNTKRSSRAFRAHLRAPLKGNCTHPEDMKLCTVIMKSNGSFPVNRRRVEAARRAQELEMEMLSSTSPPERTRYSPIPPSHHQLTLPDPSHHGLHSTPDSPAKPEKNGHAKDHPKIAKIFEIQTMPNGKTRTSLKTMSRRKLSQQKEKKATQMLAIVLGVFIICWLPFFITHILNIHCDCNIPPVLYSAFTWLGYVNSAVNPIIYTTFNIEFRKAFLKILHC
# T2 sequence (P20309 whole entry): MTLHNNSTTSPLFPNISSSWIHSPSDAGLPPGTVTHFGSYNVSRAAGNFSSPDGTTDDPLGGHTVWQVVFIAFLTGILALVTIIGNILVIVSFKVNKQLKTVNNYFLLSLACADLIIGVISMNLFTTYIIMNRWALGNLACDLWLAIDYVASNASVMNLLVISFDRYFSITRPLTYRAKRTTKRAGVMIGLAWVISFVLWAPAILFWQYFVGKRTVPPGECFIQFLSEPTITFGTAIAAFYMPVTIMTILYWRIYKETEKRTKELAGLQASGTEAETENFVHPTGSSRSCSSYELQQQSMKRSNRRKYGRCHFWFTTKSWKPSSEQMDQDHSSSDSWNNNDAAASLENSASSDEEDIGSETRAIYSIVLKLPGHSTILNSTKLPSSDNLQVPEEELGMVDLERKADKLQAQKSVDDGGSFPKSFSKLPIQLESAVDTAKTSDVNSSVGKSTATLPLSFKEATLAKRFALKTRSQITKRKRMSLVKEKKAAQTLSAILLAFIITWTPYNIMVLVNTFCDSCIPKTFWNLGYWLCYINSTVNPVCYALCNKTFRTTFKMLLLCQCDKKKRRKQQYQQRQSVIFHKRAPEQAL
SMILES,Kb (5-HT2A receptor; [3]),Ki (human M3 receptors; [4]),"Ki [1, 5]",Ki (human 5HT2C receptors),Ki (human H1 receptors),Ki [2],Ki (human 5HT7 receptors; [6]),Ki (human M1 receptors),Ki (human 5HT1A receptors),"Kb (5-HT2A receptor; pKb reported on a scale of 1 through 5, read-out: 5HT2A (pKb) (converted))",Kb (5-HT2A receptor),Ki (human M3 receptors),Ki [1],Ki (human 5HT7 receptors)
"CN(CCO)C(=O)C[C@H]1CN(C2=Nc3cc(Cl)ccc3Oc3ccccc32)CCN1 [FO, (S,E)-2-(4-(8-chlorodibenzo[b,f][1,4]oxazepin-11-yl)piperazin-2-yl)-N-(2-hydroxyethyl)-N-methylacetamide]",0.01 to 0.0309 µM,> 10 µM,2.51 to 9.77 µM,0.01 to 0.0977 µM,0.01 to 0.0977 µM,2.51 to 9.77 µM,0.631 to 1.55 µM,2.51 to 4.9 µM,0.1 to 0.977 µM,,,,,
"O=C(C[C@H]1CN(C2=Nc3cc(Cl)ccc3Oc3ccccc32)CCN1)NC[C@@H]1CCCO1 [FR, 2-((S)-4-((E)-8-chlorodibenzo[b,f][1,4]oxazepin-11-yl)piperazin-2-yl)-N-(((S)-tetrahydrofuran-2-yl)methyl)acetamide]",0.00316 to 0.00977 µM,> 10 µM,0.158 to 0.617 µM,0.01 to 0.0977 µM,0.01 to 0.0977 µM,0.158 to 0.617 µM,0.631 to 1.55 µM,> 10 µM,0.01 to 0.0977 µM,,,,,
"C[C@@H](O)CNC(=O)C[C@H]1CN(C2=Nc3cc(Cl)ccc3Oc3ccccc32)CCN1 [FB, 2-((S)-4-((E)-8-chlorodibenzo[b,f][1,4]oxazepin-11-yl)piperazin-2-yl)-N-((R)-2-hydroxypropyl)acetamide]",< 0.00309 µM,> 10 µM,0.631 to 2.45 µM,0.01 to 0.0977 µM,0.01 to 0.0977 µM,0.631 to 2.45 µM,0.631 to 1.55 µM,> 10 µM,0.01 to 0.0977 µM,,,,,
"COC(=O)CC1CN(C2=Nc3cc(C(F)(F)F)ccc3Oc3ccccc32)CCN1 (stereo not drawn) [DQ, (E)-methyl 2-(4-(8-(trifluoromethyl)dibenzo[b,f][1,4]oxazepin-11-yl)piperazin-2-yl)acetate]",,> 10 µM,2.51 to 9.77 µM,0.1 to 0.977 µM,1 to 9.77 µM,2.51 to 9.77 µM,3.98 to 9.77 µM,> 10 µM,0.1 to 0.977 µM,> 0.1 µM,,,,
"O=C(C[C@H]1CN(C2=Nc3cc(Cl)ccc3Oc3ccccc32)CCN1)O[C@@H]1CN2CCC1CC2 [DU, (S)-quinuclidin-3-yl 2-((S)-4-((E)-8-chlorodibenzo[b,f][1,4]oxazepin-11-yl)piperazin-2-yl)acetate]",,,,0.1 to 0.977 µM,0.1 to 0.977 µM,2.51 to 9.77 µM,,5.01 to 9.77 µM,0.01 to 0.0977 µM,,> 0.1 µM,> 10 µM,2.51 to 9.77 µM,3.98 to 9.77 µM
"O=C(C[C@H]1CN(C2=Nc3cc(Cl)ccc3Oc3ccccc32)CCN1)NCCOCCO [FN, (S,E)-2-(4-(8-chlorodibenzo[b,f][1,4]oxazepin-11-yl)piperazin-2-yl)-N-(2-(2-hydroxyethoxy)ethyl)acetamide]",0.00316 to 0.00977 µM,> 10 µM,0.631 to 2.45 µM,0.01 to 0.0977 µM,0.01 to 0.0977 µM,0.631 to 2.45 µM,0.631 to 1.55 µM,> 10 µM,0.01 to 0.0977 µM,,,,,
"O=C(C[C@H]1CN(C2=Nc3cc(Cl)ccc3Oc3ccccc32)CCN1)N1CCC[C@H]1C(F)(F)F [GH, 2-((S)-4-((E)-8-chlorodibenzo[b,f][1,4]oxazepin-11-yl)piperazin-2-yl)-1-((S)-2-(trifluoromethyl)pyrrolidin-1-yl)ethanone]",0.0316 to 0.0977 µM,7.94 to 9.77 µM,0.631 to 2.45 µM,0.1 to 0.977 µM,0.01 to 0.0977 µM,2.51 to 9.77 µM,1.58 to 3.89 µM,≤ 1.23 µM,0.1 to 0.977 µM,,,,,
"O=C(C[C@H]1CN(C2=Nc3cc(Cl)ccc3Oc3ccccc32)CCN1)NCCO [FA, (S,E)-2-(4-(8-chlorodibenzo[b,f][1,4]oxazepin-11-yl)piperazin-2-yl)-N-(2-hydroxyethyl)acetamide]",0.00316 to 0.00977 µM,> 10 µM,0.631 to 2.45 µM,0.01 to 0.0977 µM,0.01 to 0.0977 µM,0.631 to 2.45 µM,0.631 to 1.55 µM,> 10 µM,0.01 to 0.0977 µM,,,,,
"COC(=O)C[C@H]1CN(C2=Nc3cc(Cl)ccc3Oc3ccccc32)CCN1 [Compound N, (S,E)-methyl 2-(4-(8-chlorodibenzo[b,f][1,4]oxazepin-11-yl)piperazin-2-yl)acetate]",0.00316 to 0.00977 µM,> 10 µM,0.631 to 2.45 µM,0.01 to 0.0977 µM,0.1 to 0.977 µM,0.631 to 2.45 µM,0.631 to 1.55 µM,5.01 to 9.77 µM,0.1 to 0.977 µM,,,,,
"CCCN(CCO)C(=O)C[C@H]1CN(C2=Nc3cc(Cl)ccc3Oc3ccccc32)CCN1 [EZ, (S,E)-2-(4-(8-chlorodibenzo[b,f][1,4]oxazepin-11-yl)piperazin-2-yl)-N-(2-hydroxyethyl)-N-propylacetamide]",0.0316 to 0.0977 µM,> 10 µM,2.51 to 9.77 µM,0.01 to 0.0977 µM,0.01 to 0.0977 µM,2.51 to 9.77 µM,0.631 to 1.55 µM,> 10 µM,≤ 0.00977 µM,,,,,
"O=C(C[C@H]1CN(C2=Nc3cc(Cl)ccc3Oc3ccccc32)CCN1)N1CCOCC1 [GG, (S,E)-2-(4-(8-chlorodibenzo[b,f][1,4]oxazepin-11-yl)piperazin-2-yl)-1-morpholinoethanone]",0.00316 to 0.00977 µM,7.94 to 9.77 µM,2.51 to 9.77 µM,0.01 to 0.0977 µM,≤ 0.00977 µM,2.51 to 9.77 µM,0.631 to 1.55 µM,1.26 to 2.45 µM,0.01 to 0.0977 µM,,,,,
